From PubChem BioAssay (NCI)
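Each compound was tested at five concentrations against cells in 96-well plates for 48 hours. The concentration for full growth arrest is given as TGI.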

Tests used:
Test in all cases: growth of human tumour cells (NCI), 48 h
[1] = test system: U251 CNS
[2] = test system: HOP-62 NSCLC
[3] = test system: CAKI-1 renal
[4] = test system: MOLT-4 leukemia
[5] = test system: K-562 leukemia
[6] = test system: RXF 393 renal
[7] = test system: T-47D breast
[8] = test system: MDA-MB-435
[9] = test system: SW-620 colon
[10] = test system: NCI-H226 lung
[11] = test system: HCC-2998 colon
[12] = test system: SF-268 CNS
[13] = test system: M14 melanoma
[14] = test system: HT29 colon
[15] = test system: NCI-H460 lung
[16] = test system: SF-295 CNS
[17] = test system: DU-145 prostate
[18] = test system: CCRF-CEM leukemia
[19] = test system: UACC-257 melanoma
[20] = test system: MDA-N
[21] = test system: MDA-MB-231 breast
[22] = test system: RPMI-8226 leukemia
[23] = test system: COLO 205 colon
[24] = test system: SR leukemia
[25] = test system: BT-549 breast
[26] = test system: NCI-H23 lung
[27] = test system: MCF7 breast
[28] = test system: ACHN renal
[29] = test system: NCI/ADR-RES ovarian
[30] = test system: UACC-62 melanoma
[31] = test system: OVCAR-3 ovarian
[32] = test system: SNB-19 CNS
[33] = test system: OVCAR-5 ovarian
[34] = test system: NCI-H522 lung
[35] = test system: MALME-3M melanoma
[36] = test system: EKVX NSCLC
[37] = test system: SK-MEL-5 melanoma
[38] = test system: IGROV1 ovarian
[39] = test system: SN12C renal
[40] = test system: A549 NSCLC
[41] = test system: OVCAR-8 ovarian
[42] = test system: LOX IMVI melanoma
[43] = test system: HOP-92 NSCLC
[44] = test system: SK-OV-3 ovarian
[45] = test system: HL-60(TB) leukemia
[46] = test system: HS 578T breast
[47] = test system: OVCAR-4 ovarian
[48] = test system: SK-MEL-28 melanoma
[49] = test system: UO-31 renal
[50] = test system: SF-539 CNS
[51] = test system: HCT-15 colon
[52] = test system: HCT-116 colon
[53] = test system: TK-10 renal
[54] = test system: PC-3 prostate
[55] = test system: SNB-75 CNS
[56] = test system: 786-0 renal
[57] = test system: KM12 colon
[58] = test system: SK-MEL-2 melanoma
[59] = test system: A498 renal

Measured: TGI

Cc1ccc(Nc2nc3ccccc3c(=O)n2N)cc1
> 100 µM: [1] | [2] | [3] | [4] | [5] | [6] | [7] | [8] | [9] | [10] | [11] | [12] | [13] | [14] | [15] | [16] | [17] | [18] | [19] | [20] | [21] | [22] | [23] | [24] | [25] | [26] | [27] | [28] | [29] | [30] | [31] | [32] | [33] | [34] | [35] | [36] | [37] | [38] | [39] | [40] | [41] | [42] | [43] | [44] | [45] | [46] | [47] | [48] | [49] | [50] | [51] | [52] | [53] | [54] | [55] | [56] | [57] | [58]

COC(=O)/C=C/CC(=O)NS(C)(=O)=O
> 10 µM: [1] | [2] | [3] | [4] | [6] | [7] | [8] | [9] | [10] | [11] | [12] | [13] | [14] | [15] | [16] | [17] | [18] | [19] | [20] | [21] | [22] | [23] | [24] | [25] | [26] | [27] | [28] | [29] | [30] | [31] | [32] | [33] | [34] | [35] | [36] | [37] | [38] | [39] | [40] | [41] | [42] | [44] | [45] | [46] | [47] | [48] | [49] | [50] | [59] | [51] | [52] | [53] | [54] | [56] | [57] | [58]
